Reference: ChEMBL document CHEMBL4673225, “Highly Selective PTK2 Proteolysis Targeting Chimeras to Probe Focal Adhesion Kinase Scaffolding Functions” (J Med Chem, 2019)

Columns and labels:
[1] = molecular target: T1, von Hippel-Lindau disease tumor suppressor/Focal adhesion kinase 1 (Homo sapiens, UniProt Q05397+P40337); assay: Protac activity at VHL/PTK2 in human HLF1 cells assessed as induction of PTK2 degradation incubated for 18 hrs by protein capillary electrophoresis method; type: cell-based
[2] = molecular target: T1, von Hippel-Lindau disease tumor suppressor/Focal adhesion kinase 1; assay: Protac activity at VHL/PTK2 in human SNU-398 cells assessed as induction of PTK2 degradation incubated for 18 hrs by protein capillary electrophoresis method relative to control; type: cell-based
Target sequence in this assay (P40337 whole entry partner): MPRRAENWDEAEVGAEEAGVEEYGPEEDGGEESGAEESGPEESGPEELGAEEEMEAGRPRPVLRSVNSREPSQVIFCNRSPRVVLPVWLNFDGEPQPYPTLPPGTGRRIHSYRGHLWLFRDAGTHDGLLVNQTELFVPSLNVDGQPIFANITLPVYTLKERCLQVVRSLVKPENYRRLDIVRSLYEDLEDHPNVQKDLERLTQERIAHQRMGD
Target sequence in this assay (Q05397 2-1052 limits assumed): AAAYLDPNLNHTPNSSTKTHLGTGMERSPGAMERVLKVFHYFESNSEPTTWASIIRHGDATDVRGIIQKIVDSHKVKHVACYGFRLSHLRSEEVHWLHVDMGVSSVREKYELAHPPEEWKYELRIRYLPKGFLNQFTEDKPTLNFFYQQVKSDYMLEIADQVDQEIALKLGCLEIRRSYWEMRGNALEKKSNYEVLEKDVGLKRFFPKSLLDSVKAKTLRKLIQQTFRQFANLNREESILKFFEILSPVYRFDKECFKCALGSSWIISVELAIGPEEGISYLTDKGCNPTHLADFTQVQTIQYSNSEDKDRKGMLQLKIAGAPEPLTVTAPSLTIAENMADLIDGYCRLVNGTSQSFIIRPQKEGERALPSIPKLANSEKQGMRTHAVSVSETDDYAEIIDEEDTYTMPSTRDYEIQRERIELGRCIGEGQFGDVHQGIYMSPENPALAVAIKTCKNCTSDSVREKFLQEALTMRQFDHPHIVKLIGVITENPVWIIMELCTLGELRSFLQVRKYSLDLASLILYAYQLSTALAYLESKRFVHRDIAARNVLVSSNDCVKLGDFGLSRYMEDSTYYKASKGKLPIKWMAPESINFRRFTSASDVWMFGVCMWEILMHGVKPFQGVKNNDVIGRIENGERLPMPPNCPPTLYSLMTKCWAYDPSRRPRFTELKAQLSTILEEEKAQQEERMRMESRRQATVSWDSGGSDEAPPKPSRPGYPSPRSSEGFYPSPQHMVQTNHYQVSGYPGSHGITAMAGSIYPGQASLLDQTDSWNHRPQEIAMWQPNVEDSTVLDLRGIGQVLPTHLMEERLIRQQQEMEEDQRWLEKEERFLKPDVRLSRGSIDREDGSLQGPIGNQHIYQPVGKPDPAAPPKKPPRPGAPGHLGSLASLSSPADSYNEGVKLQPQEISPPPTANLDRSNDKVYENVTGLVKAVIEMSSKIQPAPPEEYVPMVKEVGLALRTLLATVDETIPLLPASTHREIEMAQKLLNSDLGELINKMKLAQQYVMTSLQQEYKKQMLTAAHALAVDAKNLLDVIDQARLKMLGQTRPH

[3] = molecular target: T1, von Hippel-Lindau disease tumor suppressor/Focal adhesion kinase 1; assay: Protac activity at VHL/PTK2 in human SNU-387 cells assessed as induction of PTK2 degradation incubated for 18 hrs by protein capillary electrophoresis method relative to control; type: cell-based
Target sequence in this assay (P40337 whole entry partner): as the sequence (P40337 whole entry partner) above
Target sequence in this assay (Q05397 2-1052 limits assumed): as the sequence (Q05397 2-1052 limits assumed) above

[4] = molecular target: T1, von Hippel-Lindau disease tumor suppressor/Focal adhesion kinase 1; assay: Protac activity at VHL/PTK2 in human HepG2 cells assessed as induction of PTK2 degradation incubated for 18 hrs by protein capillary electrophoresis method; type: cell-based
[5] = molecular target: T1, von Hippel-Lindau disease tumor suppressor/Focal adhesion kinase 1; assay: Protac activity at VHL/PTK2 in human Hep3B2.1-7 cells assessed as induction of PTK2 degradation incubated for 18 hrs in presence of Cyclosporine by protein capillary electrophoresis method; type: cell-based; conditions: hep3b
[6] = molecular target: T1, von Hippel-Lindau disease tumor suppressor/Focal adhesion kinase 1; assay: Protac activity at VHL/PTK2 in human Hep3B2.1-7 cells assessed as induction of PTK2 degradation incubated for 18 hrs by protein capillary electrophoresis method; type: cell-based; conditions: hep3b
[7] = molecular target: T1, von Hippel-Lindau disease tumor suppressor/Focal adhesion kinase 1; assay: Protac activity at VHL/PTK2 in human SNU-387 cells assessed as induction of PTK2 degradation incubated for 18 hrs by protein capillary electrophoresis method; type: cell-based
[8] = molecular target: T1, von Hippel-Lindau disease tumor suppressor/Focal adhesion kinase 1; assay: Protac activity at VHL/PTK2 in human Hep3B2.1-7 cells assessed as induction of PTK2 degradation incubated for 18 hrs in presence of Cyclosporine by protein capillary electrophoresis method relative to control; type: cell-based; conditions: Hep3B
Target sequence in this assay (P40337 whole entry partner): as the sequence (P40337 whole entry partner) above
Target sequence in this assay (Q05397 2-1052 limits assumed): as the sequence (Q05397 2-1052 limits assumed) above

[9] = molecular target: T2, Protein cereblon/Focal adhesion kinase 1 (Homo sapiens, UniProt Q05397+Q96SW2); assay: Protac activity at CRBN/PTK2 in human SNU-423 cells assessed as induction of PTK2 degradation incubated for 18 hrs by protein capillary electrophoresis method; type: cell-based
Target sequence in this assay (Q05397 whole entry): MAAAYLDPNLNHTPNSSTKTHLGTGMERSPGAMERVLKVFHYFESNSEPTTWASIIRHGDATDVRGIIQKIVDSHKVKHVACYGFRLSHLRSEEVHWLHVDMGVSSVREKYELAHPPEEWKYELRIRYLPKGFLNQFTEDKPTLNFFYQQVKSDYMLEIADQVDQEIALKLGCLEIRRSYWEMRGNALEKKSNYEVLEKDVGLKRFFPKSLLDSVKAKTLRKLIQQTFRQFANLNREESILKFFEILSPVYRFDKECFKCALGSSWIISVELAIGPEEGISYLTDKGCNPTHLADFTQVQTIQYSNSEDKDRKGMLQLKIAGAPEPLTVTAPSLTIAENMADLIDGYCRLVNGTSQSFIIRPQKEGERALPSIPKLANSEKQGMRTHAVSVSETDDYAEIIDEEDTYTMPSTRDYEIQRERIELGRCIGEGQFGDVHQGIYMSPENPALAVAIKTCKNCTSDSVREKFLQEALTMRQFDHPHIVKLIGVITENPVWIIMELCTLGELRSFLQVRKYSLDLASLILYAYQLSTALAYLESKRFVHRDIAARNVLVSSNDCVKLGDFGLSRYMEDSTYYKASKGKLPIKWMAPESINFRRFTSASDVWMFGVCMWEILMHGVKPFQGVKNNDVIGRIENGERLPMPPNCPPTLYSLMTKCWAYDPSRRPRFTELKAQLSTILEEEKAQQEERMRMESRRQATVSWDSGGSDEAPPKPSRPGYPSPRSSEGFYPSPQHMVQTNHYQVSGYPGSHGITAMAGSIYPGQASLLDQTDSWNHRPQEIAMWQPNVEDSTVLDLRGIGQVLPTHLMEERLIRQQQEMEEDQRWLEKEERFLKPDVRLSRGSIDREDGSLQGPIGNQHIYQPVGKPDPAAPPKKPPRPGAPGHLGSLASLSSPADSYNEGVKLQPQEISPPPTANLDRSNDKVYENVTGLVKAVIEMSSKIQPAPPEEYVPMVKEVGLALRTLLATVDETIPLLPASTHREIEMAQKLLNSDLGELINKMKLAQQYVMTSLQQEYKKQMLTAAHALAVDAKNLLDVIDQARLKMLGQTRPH
Target sequence in this assay (Q96SW2 whole entry): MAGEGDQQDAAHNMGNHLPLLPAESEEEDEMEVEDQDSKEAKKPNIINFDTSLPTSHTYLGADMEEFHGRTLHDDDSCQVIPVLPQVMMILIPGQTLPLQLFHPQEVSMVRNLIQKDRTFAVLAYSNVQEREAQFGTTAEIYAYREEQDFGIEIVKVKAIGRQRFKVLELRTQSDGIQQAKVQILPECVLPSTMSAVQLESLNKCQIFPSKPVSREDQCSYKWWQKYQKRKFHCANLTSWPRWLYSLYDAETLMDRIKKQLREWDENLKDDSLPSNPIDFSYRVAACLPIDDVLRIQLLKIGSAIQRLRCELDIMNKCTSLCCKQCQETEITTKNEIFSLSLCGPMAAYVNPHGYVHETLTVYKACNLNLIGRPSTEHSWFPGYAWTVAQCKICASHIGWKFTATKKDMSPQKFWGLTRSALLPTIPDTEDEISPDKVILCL

[10] = molecular target: T2, Protein cereblon/Focal adhesion kinase 1; assay: Protac activity at CRBN/PTK2 in human Hep3B2.1-7 cells assessed as induction of PTK2 degradation incubated for 18 hrs in presence of Cyclosporine A by protein capillary electrophoresis method; type: cell-based; conditions: hep3b
Target sequence in this assay (Q05397 whole entry): as the sequence (Q05397 whole entry) above
Target sequence in this assay (Q96SW2 whole entry): as the sequence (Q96SW2 whole entry) above

[11] = molecular target: T2, Protein cereblon/Focal adhesion kinase 1; assay: Protac activity at CRBN/PTK2 in human Hep3B2.1-7 cells assessed as time required for maximal induction of PTK2 degradation at 3 uM incubated for up to 80 hrs by protein capillary electrophoresis method; conditions: time hrs <=80
Target sequence in this assay (Q05397 2-1052 limits assumed): as the sequence (Q05397 2-1052 limits assumed) above
Target sequence in this assay (Q96SW2 whole entry partner): as the sequence (Q96SW2 whole entry) above

[12] = molecular target: T2, Protein cereblon/Focal adhesion kinase 1; assay: Protac activity at CRBN/PTK2 in human HepG2 cells assessed as induction of PTK2 degradation incubated for 18 hrs by protein capillary electrophoresis method; type: cell-based
Target sequence in this assay (Q05397 whole entry): as the sequence (Q05397 whole entry) above
Target sequence in this assay (Q96SW2 whole entry): as the sequence (Q96SW2 whole entry) above

[13] = molecular target: T2, Protein cereblon/Focal adhesion kinase 1; assay: Protac activity at CRBN/PTK2 in human Hep3B2.1-7 cells assessed as induction of PTK2 degradation incubated for 18 hrs in presence of Cyclosporine A by protein capillary electrophoresis method relative to control; type: cell-based; conditions: Hep3B
Target sequence in this assay (Q05397 2-1052 limits assumed): as the sequence (Q05397 2-1052 limits assumed) above
Target sequence in this assay (Q96SW2 whole entry partner): as the sequence (Q96SW2 whole entry) above

[14] = molecular target: T2, Protein cereblon/Focal adhesion kinase 1; assay: Protac activity at CRBN/PTK2 in human SK-HEP1 cells assessed as induction of PTK2 degradation incubated for 18 hrs by protein capillary electrophoresis method; type: cell-based
Target sequence in this assay (Q05397 whole entry): as the sequence (Q05397 whole entry) above
Target sequence in this assay (Q96SW2 whole entry): as the sequence (Q96SW2 whole entry) above

[15] = molecular target: T2, Protein cereblon/Focal adhesion kinase 1; assay: Protac activity at CRBN/PTK2 in human A549 cells assessed as induction of PTK2 degradation incubated for 18 hrs by protein capillary electrophoresis method relative to control; type: cell-based
Target sequence in this assay (Q05397 2-1052 limits assumed): as the sequence (Q05397 2-1052 limits assumed) above
Target sequence in this assay (Q96SW2 whole entry partner): as the sequence (Q96SW2 whole entry) above

[16] = molecular target: T2, Protein cereblon/Focal adhesion kinase 1; assay: Protac activity at CRBN/PTK2 in human HLF1 cells assessed as induction of PTK2 degradation incubated for 18 hrs by protein capillary electrophoresis method relative to control; type: cell-based
Target sequence in this assay (Q05397 2-1052 limits assumed): as the sequence (Q05397 2-1052 limits assumed) above
Target sequence in this assay (Q96SW2 whole entry partner): as the sequence (Q96SW2 whole entry) above

[17] = molecular target: T2, Protein cereblon/Focal adhesion kinase 1; assay: Protac activity at CRBN/PTK2 in human Huh-7 cells assessed as induction of PTK2 degradation incubated for 18 hrs by protein capillary electrophoresis method; type: cell-based
Target sequence in this assay (Q05397 whole entry): as the sequence (Q05397 whole entry) above
Target sequence in this assay (Q96SW2 whole entry): as the sequence (Q96SW2 whole entry) above

[18] = molecular target: T2, Protein cereblon/Focal adhesion kinase 1; assay: Protac activity at CRBN/PTK2 in human SNU-423 cells assessed as induction of PTK2 degradation incubated for 18 hrs by protein capillary electrophoresis method relative to control; type: cell-based
Target sequence in this assay (Q05397 2-1052 limits assumed): as the sequence (Q05397 2-1052 limits assumed) above
Target sequence in this assay (Q96SW2 whole entry partner): as the sequence (Q96SW2 whole entry) above

pDC50 [1] | Emax [2] [%] | Emax [3] [%] | pDC50 [4] | pDC50 [5] | pDC50 [6] | pDC50 [7] | Emax [8] [%] | pDC50 [9] | pDC50 [10] | TIME [11] [h] | pDC50 [12] | Emax [13] [%] | pDC50 [14] | Emax [15] [%] | Emax [16] [%] | pDC50 [17] | Emax [18] [%] | Structure (SMILES)
7.4 | 99 | 98 | 6.2 | 7.4 | 6.2 | 7.5 | 88 | – | – | – | – | – | – | – | – | – | – | COc1cc(C(=O)NCCOCCOCCOCC(=O)N[C@H](C(=O)N2C[C@H](O)C[C@H]2C(=O)NCc2ccc(-c3scnc3C)cc2)C(C)(C)C)ccc1Nc1ncc(C(F)(F)F)c(Oc2cccc3c2C(=O)CC3)n1
– | – | – | – | – | – | – | – | 7.9 | 9 | 5 | 7.5 | 94 | 7.5 | 95 | 30 | 7.3 | 93 | COc1cc(C(=O)NCCOCCOCCOCCC(=O)Nc2cccc3c2C(=O)N(C2CCC(=O)NC2=O)C3=O)ccc1Nc1ncc(C(F)(F)F)c(Oc2cccc3c2C(=O)CC3)n1 (stereo not drawn)
